Like-named read-outs stand apart in the source and are kept apart here.
Legend:
[1] = Solubility of components in the exemplary compositions; format: physicochemical; details: in the current exemplary compositions
Method: Additional experiments provided a greater understanding of the ability to achieve certain functional goals for the final composition. Evaluation of phosphorus, calcium, vitamin D, fluoride, xylitol, and the pH of the alkaline ionized water was performed as described below.

[2] = Evaluation of calcium: bioavailability; details: form of calcium
[3] = cited from earlier work

CC(O)C(=O)[O-].O=C([O-])[C@H](O)[C@@H](O)[C@H](O)[C@H](O)CO.[Ca+2] [Calcium lactate gluconate]
solubility [1]: very soluble | bioavailability [2]: bioavailable

OC[C@@H](O)[C@H](O)[C@@H](O)CO [xylitol]
dosage causing diarrhea ([3]; adults): 100 g/day | dosage causing diarrhea ([3]; children): 45 g/day | tolerated amount ([3]; most adults): 40 g/day

vitamin D
solubility [1]: not soluble

Reference: patent publication US20170035664A1, “FLAVOR-OPTIMIZED IONIZED WATER COMPOSITIONS” (priority 2015, published 2017)
